In US20240342179A1, “TREATMENT OF CANCERS OR NEOPLASMS BY INHIBITING KIF15” (University of Kansas, priority 2023, published 2024):

Tests used:
[1] = target: KIF15/TPX2 protein-protein interaction (GST-KIF15 amino acids 1149-1388, His-TPX2 amino acids 346-747) (Homo sapiens (Human), UniProt Q9NS87); experiment: KIF15/TPX2 AlphaScreen assay; assay type: binding
Method: The protocol designed peptides corresponding to the appropriate domains of KIF15 (amino acids 1149-1388, GST-tagged) and TPX2 (amino acids 346-747, His-tagged), for use in the AlphaScreen assay.
Next, the protocol screened a total of 191,852 compounds from the KU-HTS library. Analysis identified 584 hits that inhibited the primary AlphaScreen TPX2-KIF15 interaction to greater than three standard deviations plus the plate inhibition-median. The 584 hits were tested for assay interference in the AlphaScreen counter-screen using His-GST fusion protein. […] Of the 467 hits, 399 inhibited the TPX2-KIF15 interaction in a dose-response manner. Refinement was conducted until identifying the compounds provided herein.
To identify compounds that inhibit KIF15-mediated bipolar spindle formation, a process that is dependent on KIF15 binding to TPX2, the protocol designed a high-throughput screen using AlphaScreen Technology. Previous studies predicted that KIF15-TPX2 binding is mediated through a C-terminal coiled-coil domain on KIF15 (amino acids 1149-1388; amino acids 1359-1380) that binds the C-terminal region of TPX2 (amino acids 475-715; amino acids 680-747)^50, 52, 57, 58. Based on these observations, the protocol designed peptides corresponding to the appropriate domains of TPX2 (amino acids 346-747, His-tagged), and KIF15 (amino acids 1149-1388, GST-tagged) for use in the AlphaScreen assay.
Next, the protocol screened a total of 191,852 compounds from the KU-HTS small-molecule compound collection. The protocol identified 584 hits that inhibited the primary AlphaScreen TPX2-KIF15 interaction to greater than three standard deviations plus the plate inhibition-median. The 584 hits were tested for assay interference in the AlphaScreen assay counter-screen using His-GST fusion protein eliminating 117 compounds^99. […] Of the 467 hits, 399 inhibited the KIF15-TPX2 interaction in a concentration-dependent manner (FIGS. 3A-3D), rendering them candidates for follow-on validation in orthogonal and counter-screen assays. Informed by computational and medicinal chemistry assessment^100, the protocol selected a representative subset of approximately 200 of the 399 compound hits for additional characterization. Samples for 177 compounds from the subset of approximately 200 representative compounds were available for purchase. Samples of these 177 compounds were purchased for structure verification by NMR and further characterization. There was enough compound sample procured to complete follow-on screening for 166 of the 177 compounds.

GST-KIF15 1149-1388 = GST-KIF15 1149-1388 (Homo sapiens (Human), UniProt Q9NS87); experiment: NMR (STD-NMR / WaterLOGSY) versus GST-KIF15; assay type: binding; conditions: for NMR Versus GST-KIF15: Hit / No; for WaterLOGSY binding to GST-KIF15: 1:150 GST-KIF15 1149-1388
Method: (§1) WaterLOGSY NMR Spectra of Compounds A1 and B2 are provided.
Various cocktails of compounds were prepared to test for interactions. 100 μL DMSO-d6 was added to 3 mg of material. 26 cocktails of 6 compounds were prepared and 3 cocktails of 7 compounds were prepared. Then, 3 μM protein is added to 300 μM of the cocktails in 10% D2O buffer. Concentration of compounds is 10 mM each.
(§2) The 166 compound hit samples were further characterized for KIF15 or TPX2 binding using biophysical saturation transfer difference nuclear magnetic resonance (STD-NMR) and WaterLOGSY assays. The 166 compound samples were screened by STD-NMR for evidence of binding to GST-KIF15 or His-TPX2. In our assessment, no hits bound to His-TPX2. The protocol counter-screened potential hits against a His-GST peptide^99 and for aggregation using protein-free controls. Ultimately, three compound hits representing two compound chemotypes were validated to bind KIF15 by WaterLOGSY (FIGS. 4A-4B).

His-TPX2 346-747 = His-TPX2 346-747 (Homo sapiens (Human), UniProt Q9ULW0); experiment: NMR (STD-NMR / WaterLOGSY) versus His-TPX2; assay type: binding; conditions: 1:150 His-TPX2 346-747
Source text: as §1, §2

KIF15-HiBiT = KIF15-HiBiT (Homo sapiens (Human), UniProt Q9NS87); experiment: Cellular thermal shift assay (CETSA), HiBiT split luciferase; assay type: cell-based; conditions: 100 μM
Method: To verify that the three putative binders of KIF15 identified by NMR spectroscopy against KIF15 fragments, a cellular thermal shift assay was performed. All three compounds at 100 μM stabilized KIF15 when thermally challenged to a greater extent than the TPX2 mimetic peptide used as a positive control (Δ5.7° C. for compound A1, Δ5.3° C. for compound A2, and Δ9.6° C. for compound B1, Δ2.1° C. for TPX2 mimetic peptide).
The HiBiT Split Luciferase based protein detection method utilized for screening of candidate compounds for physical binding to KIF15. […] The increase in stability of the protein indicates ligand engagement by stabilizing the protein in a natured conformation.
These three compound hits, referred to as Compounds A1, A2 and B1 (FIG. 3A) were screened for target engagement in CETSA. In short, a split luciferase tag known as HiBiT (Promega, Madison, WI) was fused to the KIF15 protein in a transient expression vector. Soluble protein can be easily quantified by adding the LgBiT subunit of nano luciferase. A stabilizing shift in the melting temperature of the protein indicates the protein is being stabilized by the engaged small molecule indicating direct binding of the small molecule to its target.

[2] = test system: EOC cell lines (A2780, OVCAR5, and SKOV3); experiment: Synergy with ispinesib in cell viability (Bliss score); assay type: cell-based; conditions: combination with ispinesib
Source text: The protocol tested all 166 samples of compound hits for complete screening for synergism in KIF11-inhibited cells EOC cell lines (A2780, OVCAR5, and SKOV3) (FIGS. 5A-5C).
Bliss score analyzes the statistical independence of the two treatments. A positive score indicates synergism, a negative score indicates antagonism and a score of zero indicates a purely additive effect of the combination therapy.

GST-KIF15 1149-1388, sequence (Q9NS87 1149-1388): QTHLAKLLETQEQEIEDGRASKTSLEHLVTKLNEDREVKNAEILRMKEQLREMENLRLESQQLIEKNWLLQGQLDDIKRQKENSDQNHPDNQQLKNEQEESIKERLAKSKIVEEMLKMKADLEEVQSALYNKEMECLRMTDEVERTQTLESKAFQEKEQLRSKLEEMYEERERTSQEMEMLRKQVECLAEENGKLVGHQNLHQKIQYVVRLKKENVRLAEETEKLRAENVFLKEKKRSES
KIF15/TPX2 protein-protein interaction (GST-KIF15 amino acids 1149-1388, His-TPX2 amino acids 346-747), sequence (Q9NS87 1149-1388): as above
KIF15-HiBiT, sequence (Q9NS87 whole entry, the tested form may be a part): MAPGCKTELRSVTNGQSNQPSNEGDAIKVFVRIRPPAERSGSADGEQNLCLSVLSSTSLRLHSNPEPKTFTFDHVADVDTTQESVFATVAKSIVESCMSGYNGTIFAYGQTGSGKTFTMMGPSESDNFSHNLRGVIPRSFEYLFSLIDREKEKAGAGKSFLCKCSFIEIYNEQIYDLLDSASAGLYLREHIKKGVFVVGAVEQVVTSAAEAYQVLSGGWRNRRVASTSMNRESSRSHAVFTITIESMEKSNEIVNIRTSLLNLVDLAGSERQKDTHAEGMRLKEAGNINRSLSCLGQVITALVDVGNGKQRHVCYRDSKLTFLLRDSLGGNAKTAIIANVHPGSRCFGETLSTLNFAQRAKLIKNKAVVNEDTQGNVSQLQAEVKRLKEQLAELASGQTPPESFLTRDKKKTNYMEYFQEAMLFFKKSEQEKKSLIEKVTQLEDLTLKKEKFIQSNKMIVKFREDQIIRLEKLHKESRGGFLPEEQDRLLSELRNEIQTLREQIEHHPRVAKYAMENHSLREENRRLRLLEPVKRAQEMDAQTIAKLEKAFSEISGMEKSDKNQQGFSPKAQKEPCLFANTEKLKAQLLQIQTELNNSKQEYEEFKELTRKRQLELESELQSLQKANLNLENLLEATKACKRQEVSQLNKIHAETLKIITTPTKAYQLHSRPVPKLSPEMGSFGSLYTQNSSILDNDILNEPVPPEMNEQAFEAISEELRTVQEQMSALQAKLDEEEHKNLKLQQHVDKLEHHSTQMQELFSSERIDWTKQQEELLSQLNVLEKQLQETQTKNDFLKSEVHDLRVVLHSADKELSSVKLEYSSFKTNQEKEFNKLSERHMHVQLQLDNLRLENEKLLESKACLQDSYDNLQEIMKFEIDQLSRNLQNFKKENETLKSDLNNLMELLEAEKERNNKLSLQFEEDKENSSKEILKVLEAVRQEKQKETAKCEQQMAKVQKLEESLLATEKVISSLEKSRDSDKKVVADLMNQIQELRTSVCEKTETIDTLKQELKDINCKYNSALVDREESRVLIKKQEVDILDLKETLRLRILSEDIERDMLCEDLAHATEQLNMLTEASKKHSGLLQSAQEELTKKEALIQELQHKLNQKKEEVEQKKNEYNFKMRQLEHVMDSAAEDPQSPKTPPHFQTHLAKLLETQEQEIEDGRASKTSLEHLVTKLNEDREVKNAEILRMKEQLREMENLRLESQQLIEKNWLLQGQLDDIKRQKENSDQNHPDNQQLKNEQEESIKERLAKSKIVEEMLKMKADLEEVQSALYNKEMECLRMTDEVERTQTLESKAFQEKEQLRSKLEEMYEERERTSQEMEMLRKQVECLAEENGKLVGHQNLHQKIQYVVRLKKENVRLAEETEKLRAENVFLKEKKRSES
His-TPX2 346-747, sequence (Q9ULW0 346-747): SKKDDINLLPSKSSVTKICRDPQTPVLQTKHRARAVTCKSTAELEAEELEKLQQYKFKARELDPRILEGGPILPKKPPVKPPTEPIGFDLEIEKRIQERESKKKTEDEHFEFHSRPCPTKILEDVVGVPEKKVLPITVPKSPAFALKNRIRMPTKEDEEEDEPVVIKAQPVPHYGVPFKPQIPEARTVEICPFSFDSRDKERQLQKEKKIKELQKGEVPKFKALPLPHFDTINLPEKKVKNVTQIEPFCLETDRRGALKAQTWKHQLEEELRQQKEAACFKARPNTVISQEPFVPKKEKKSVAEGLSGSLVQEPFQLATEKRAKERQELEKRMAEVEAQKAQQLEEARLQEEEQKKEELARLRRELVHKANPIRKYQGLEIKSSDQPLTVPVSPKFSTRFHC

Compound	IC50 [1]	IC50 (TruHits counter-screen)	NMR Versus GST-KIF15 (GST-KIF15 1149-1388)	WaterLOGSY binding to GST-KIF15 (GST-KIF15 1149-1388)	WaterLOGSY / STD-NMR binding to His-TPX2 (His-TPX2 346-747)	shift in thermostability of KIF15 (KIF15-HiBiT)	synergy with ispinesib in inhibition of growth [2]
CCCN1CCN(c2ncc3c(n2)CCN(Cc2ccc(CC)cc2)C3)CC1 [Compound 1, 6-(4-ethylbenzyl)-2-(4-propylpiperazin-1-yl)-5,6,7,8-tetrahydropyrido[4,3-d]pyrimidine]	32.2 ± 4.6 µM	393 ± 13 µM	No				
CCCN1CCN(c2ncc3c(n2)CCN(Cc2cccc(F)c2F)C3)CC1 [Compound 2, 6-(2,3-difluorobenzyl)-2-(4-propylpiperazin-1-yl)-5,6,7,8-tetrahydropyrido[4,3-d]pyrimidine]	27.8 ± 4.7 µM	428 ± 38 µM	No				
CCCN1CCN(c2ncc3c(n2)CCN(Cc2ccc(OCC)c(OCC)c2)C3)CC1 [Compound 3, 6-(3,4-diethoxybenzyl)-2-(4-propylpiperazin-1-yl)-5,6,7,8-tetrahydropyrido[4,3-d]pyrimidine]	42.2 ± 3.3 µM	510 ± 6 µM	No				
CCCN1CCN(c2ncc3c(n2)CCN(Cc2ccc(Br)s2)C3)CC1 [Compound 4, 6-((5-bromothiophen-2-yl)methyl)-2-(4-propylpiperazin-1-yl)-5,6,7,8-tetrahydropyrido[4,3-d]pyrimidine]	23 ± 1.6 µM	312 ± 79 µM	Hit				
CCCN1CCN(c2ncc3c(n2)CCN(Cc2cccc(Br)c2)C3)CC1 [Compound 5, 6-(3-bromobenzyl)-2-(4-propylpiperazin-1-yl)-5,6,7,8-tetrahydropyrido[4,3-d]pyrimidine]	21 µM	287 ± 8 µM	Hit				
CCCN1CCN(c2ncc3c(n2)CCN(Cc2ccc(Br)cc2)C3)CC1 [Compound 6, 6-(4-bromobenzyl)-2-(4-propylpiperazin-1-yl)-5,6,7,8-tetrahydropyrido[4,3-d]pyrimidine]	13.6 ± 1.2 µM	628 ± 35 µM	Hit				
CCOc1ccc(CN2CCc3nc(N4CCN(CC)CC4)ncc3C2)cc1OCC [Compound 7, 6-(3,4-diethoxybenzyl)-2-(4-ethylpiperazin-1-yl)-5,6,7,8-tetrahydropyrido[4,3-d]pyrimidine]	2.8 ± 0.3 µM	176 ± 9 µM	No				
CCN1CCN(c2ncc3c(n2)CCN(Cc2cc(OC)c(OC)cc2OC)C3)CC1 [Compound 8, 2-(4-ethylpiperazin-1-yl)-6-(2,4,5-trimethoxybenzyl)-5,6,7,8-tetrahydropyrido[4,3-d]pyrimidine]	2.4 ± 0.1 µM	120 ± 5.2 µM	No				
CCN1CCN(c2ncc3c(n2)CCN(Cc2ccc(OC)c(OC)c2OC)C3)CC1 [Compound 9, 2-(4-ethylpiperazin-1-yl)-6-(2,3,4-trimethoxybenzyl)-5,6,7,8-tetrahydropyrido[4,3-d]pyrimidine]	1.7 ± 0.1 µM	196 ± 0.1 µM	No				
CCN1CCN(c2ncc3c(n2)CCN(Cc2ccccc2Cl)C3)CC1 [Compound 10, 6-(2-chlorobenzyl)-2-(4-ethylpiperazin-1-yl)-5,6,7,8-tetrahydropyrido[4,3-d]pyrimidine]	1.5 ± 0.01 µM	86 ± 16 µM	Hit	indicates binding	not observed	significant shift in thermostability	Synergy
CCN1CCN(c2ncc3c(n2)CCN(Cc2cc(OC)c(OC)c(OC)c2)C3)CC1 [Compound 11, 2-(4-ethylpiperazin-1-yl)-6-(3,4,5-trimethoxybenzyl)-5,6,7,8-tetrahydropyrido[4,3-d]pyrimidine]	2.5 ± 0.8 µM	556 ± 38 µM	No				
CCOc1ccc(CN2CCc3nc(N4CCN(CC)CC4)ncc3C2)cc1OC [Compound 12, 6-(4-ethoxy-3-methoxybenzyl)-2-(4-ethylpiperazin-1-yl)-5,6,7,8-tetrahydropyrido[4,3-d]pyrimidine]	3.5 ± 0.5 µM	305 ± 13 µM	No				
CCCN1CCN(c2ncc3c(n2)CCN(Cc2ccc(OCC)c(OC)c2)C3)CC1 [Compound 13, 6-(4-ethoxy-3-methoxybenzyl)-2-(4-propylpiperazin-1-yl)-5,6,7,8-tetrahydropyrido[4,3-d]pyrimidine]	44.8 ± 0.2 µM	664 ± 103 µM	No				
C=CCn1c(C(=O)NCc2ccccn2)cc2sc(C)cc21 [Compound 14, 4-allyl-2-methyl-N-(pyridin-2-ylmethyl)-4H-thieno[3,2-b]pyrrole-5-carboxamide]	5.6 ± 0.3 µM	87 ± 2 µM		indicates binding	not observed	significant shift in thermostability	Synergy
CCCN1CCN(c2ncc3c(n2)CCN(Cc2cc(Br)cs2)C3)CC1 [Compound 15, 6-((4-bromothiophen-2-yl)methyl)-2-(4-propylpiperazin-1-yl)-5,6,7,8-tetrahydropyrido[4,3-d]pyrimidine]			Hit				
CCN1CCN(c2ncc3c(n2)CCN(Cc2ccc(F)cc2F)C3)CC1 [Compound 16, 6-(2,4-difluorobenzyl)-2-(4-ethylpiperazin-1-yl)-5,6,7,8-tetrahydropyrido[4,3-d]pyrimidine]			No				
CCN1CCN(c2ncc3c(n2)CCN(Cc2cccc(OC)c2OC)C3)CC1 [Compound 17, 6-(2,3-dimethoxybenzyl)-2-(4-ethylpiperazin-1-yl)-5,6,7,8-tetrahydropyrido[4,3-d]pyrimidine]			No				
CCN1CCN(c2ncc3c(n2)CCN(Cc2cc(Br)cs2)C3)CC1 [Compound 18, 6-((4-bromothiophen-2-yl)methyl)-2-(4-ethylpiperazin-1-yl)-5,6,7,8-tetrahydropyrido[4,3-d]pyrimidine]			Hit				
CCN1CCN(c2ncc3c(n2)CCN(Cc2ccc(OC(C)C)c(OC)c2)C3)CC1 [Compound 19, 2-(4-ethylpiperazin-1-yl)-6-(4-isopropoxy-3-methoxybenzyl)-5,6,7,8-tetrahydropyrido[4,3-d]pyrimidine]			No				
CCOc1cccc(CN2CCc3nc(N4CCN(CC)CC4)ncc3C2)c1 [Compound 20, 6-(3-ethoxybenzyl)-2-(4-ethylpiperazin-1-yl)-5,6,7,8-tetrahydropyrido[4,3-d]pyrimidine]			No				
